{"source": "patent US8269040B2", "about": "“Derivatives of venlafaxine and methods of preparing and using the same” (Wyeth LLC, priority 1999, dated 2012)", "origin": "cited, not measured here", "key": {"[1]": {"tested_on": "serotonin uptake", "details": "versus the other enantiomer"}, "[2]": {"tested_on": "norepinephrine uptake", "details": "in vitro; versus parent compound venlafaxine"}, "[3]": {"target": "dopamine uptake (Rattus norvegicus, UniProt P23977)", "sequence (P23977 whole entry)": "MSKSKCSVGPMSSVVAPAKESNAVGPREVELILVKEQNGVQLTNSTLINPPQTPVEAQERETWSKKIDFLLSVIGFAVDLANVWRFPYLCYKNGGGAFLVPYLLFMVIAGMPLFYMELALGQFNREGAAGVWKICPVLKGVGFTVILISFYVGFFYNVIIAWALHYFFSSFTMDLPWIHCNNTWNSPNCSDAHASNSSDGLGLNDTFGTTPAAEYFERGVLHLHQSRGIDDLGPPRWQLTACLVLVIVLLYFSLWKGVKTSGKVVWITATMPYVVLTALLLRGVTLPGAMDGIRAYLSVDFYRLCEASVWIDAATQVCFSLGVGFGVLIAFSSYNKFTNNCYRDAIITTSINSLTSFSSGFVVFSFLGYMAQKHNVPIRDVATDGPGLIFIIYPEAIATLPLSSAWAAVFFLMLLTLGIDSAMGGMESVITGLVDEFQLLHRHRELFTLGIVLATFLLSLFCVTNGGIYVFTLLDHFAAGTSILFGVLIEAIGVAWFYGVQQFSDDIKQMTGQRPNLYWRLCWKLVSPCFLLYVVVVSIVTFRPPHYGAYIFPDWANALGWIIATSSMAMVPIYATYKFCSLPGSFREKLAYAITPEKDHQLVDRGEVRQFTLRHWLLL", "details": "in vitro; versus parent compound venlafaxine"}, "[4]": {"tested_on": "norepinephrine synaptosomal uptake", "details": "versus the other enantiomer"}}, "data": [{"compound": "COc1ccc(C(CN(C)C)C2(O)CCCCC2)cc1", "note": "(single isomer, unassigned; (+)) [(+) enantiomer]", "values": [{"measurement": "selectivity in inhibiting serotonin uptake, comparison of enantiomers", "setting": "[1]", "result": "more selective"}]}, {"compound": "CN(C)CC(c1ccc(O)cc1)C1(O)CCCCC1", "note": "(racemic) [O-desmethylvenlafaxine, (±)-1-[2-(dimethylamino)-1-(4-phenol)ethyl]cyclohexanol]", "values": [{"measurement": "potency as inhibitor of norepinephrine uptake compared with venlafaxine", "setting": "[2]", "result": "more potent inhibitor"}, {"measurement": "half-life relative to that of venlafaxine", "setting": "compared with venlafaxine", "result": "approximately 2.5 times"}, {"measurement": "half-life (t1/2)", "setting": "in vivo", "result": "about 10 hours"}, {"measurement": "potency as inhibitor of dopamine uptake compared with venlafaxine", "setting": "[3]", "result": "more potent inhibitor"}]}, {"compound": "COc1ccc(C(CN(C)C)C2(O)CCCCC2)cc1", "note": "(single isomer, unassigned; (-)) [(−) enantiomer]", "values": [{"measurement": "potency as inhibitor of norepinephrine synaptosomal uptake, comparison of enantiomers", "setting": "[4]", "result": "more potent inhibitor"}]}]}
